From patent US5834452A, “1- or 6-hydroxylated steroids” (Roussel Uclaf, priority 1996, dated 1998) come the findings set out here.

In test [1] the test system is endometrial proliferation (uterine lace). Briefly: Progestomimetic activity: endometrial transformation in the rabbit (Clauberg-McPhail test). Type of test: in vivo. Further details: key to Maximal activity on the uterine lace (McPhail index) / Average uterine lace (McPhail Index): McPhail scale 0–4 with 0.5 steps (endometrial proliferation). The following applies: for Average uterine lace (McPhail Index): s/c, day 8 to day 11. On the procedure: 2. --Determination of the progestomimetic activity of the products of the invention: Endometrial transformation in the rabbit. The animals used were impuberal female rabbits which were 40-45 days old. The animals were treated with estradiol (5 ug/0.2 ml/rabbit in solution of corn oil, 10% ethanol) by subcutaneous route from day 1 to day 5, then the product to be studied was administered from day 8 to day 11. On day 12, the animals were sacrificed and a median portion of each uterine cornua was removed from each animal and fixed in Bouin's liquid for histological study. After fixing, the samples were dehydrated, included, cut, mounted, the paraffin was removed and then the sample was stained with hemalum-eosin-saffron. […] Then, for each of the cornua, a semi-quantitative evaluation of the endometrial proliferation (uterine lace) was carried out by the McPhail scale from 0 to 4 with 0.5 intermediates and the two figures were averaged. Similarly, the degree of hypertrophy of the cornua was evaluated by the same scale. At higher magnification, morphological observations of the mucous membrane or the myometrium could possibly be formulated. The 1-OH metabolite (product A) was tested at doses of 10, 100, 1000 μg/kg by subcutaneous route as well as orally at a dose of 1000 μg/kg. The 6-OH metabolite (product B) was tested at doses of 100, 1000 and 10000 μg/kg subcutaneously. As a control, progesterone was administered at doses of 100 and 1000 μg/kg by subcutaneous route. The averages were produced for the uterine lace (McPhail Index).

Test [2] has as its target T1, Human progesterone receptor (HPR) (Homo sapiens, UniProt P06401).
T1 construct: made in house; host or cells: SF9 insect cells (ATCC CRL1711), baculovirus, lysate supernatant
T1 sequence (P06401 1-933): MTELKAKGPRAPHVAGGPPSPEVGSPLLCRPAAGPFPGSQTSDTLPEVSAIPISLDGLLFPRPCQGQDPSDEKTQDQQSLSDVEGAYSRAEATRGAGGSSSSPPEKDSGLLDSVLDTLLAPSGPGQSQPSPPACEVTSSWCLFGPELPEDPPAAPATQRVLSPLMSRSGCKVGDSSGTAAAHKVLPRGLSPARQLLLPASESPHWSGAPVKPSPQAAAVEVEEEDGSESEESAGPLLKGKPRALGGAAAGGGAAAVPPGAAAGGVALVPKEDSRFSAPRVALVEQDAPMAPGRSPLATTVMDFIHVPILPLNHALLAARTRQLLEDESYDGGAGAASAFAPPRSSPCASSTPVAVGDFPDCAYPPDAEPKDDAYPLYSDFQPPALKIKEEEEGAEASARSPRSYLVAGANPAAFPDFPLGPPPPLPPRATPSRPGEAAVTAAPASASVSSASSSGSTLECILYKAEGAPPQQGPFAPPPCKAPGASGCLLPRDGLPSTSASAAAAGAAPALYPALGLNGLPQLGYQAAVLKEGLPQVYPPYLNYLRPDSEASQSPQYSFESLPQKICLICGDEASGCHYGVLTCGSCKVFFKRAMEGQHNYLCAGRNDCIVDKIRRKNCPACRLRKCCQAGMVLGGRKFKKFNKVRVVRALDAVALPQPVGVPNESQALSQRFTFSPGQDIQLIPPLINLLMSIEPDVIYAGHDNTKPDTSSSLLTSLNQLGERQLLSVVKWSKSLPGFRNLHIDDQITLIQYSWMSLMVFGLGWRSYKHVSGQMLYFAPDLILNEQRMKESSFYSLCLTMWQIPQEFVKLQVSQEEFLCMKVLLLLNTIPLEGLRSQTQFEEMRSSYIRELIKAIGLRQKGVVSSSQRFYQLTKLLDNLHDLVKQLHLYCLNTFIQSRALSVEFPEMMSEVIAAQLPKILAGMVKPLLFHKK
The experiment in a line: Relative bond affinity (RBA), recombinant human progestogen receptor, charcoal dextran technique. To be noted: 24 h at 0° C., Progesterone = 100. The test is classed as binding. From the text:
The human recombinant receptor (HGR, HPR, HAR, HMR, HER) was used.
Human progesterone receptor (HPR):
The recombinant human progestogen receptor was obtained by the superexpression in a cell system of insects--Baculovirus, according to the methodology described by Webb et al (Journal of Methods in Cell and Molecular Biology, (1990) Vol. 2 No. 4, p. 173-188) and the application of which was described for the expression of human hormonal receptors, for example the human glucocorticoid receptor (Srinivasan et al, Molecular Endocrinology, (1990) Vol. 4 No. 2, p. 209-216.
The BaculoGold Transfection Kit (PharMingen, reference 21000K) was used to insert the cDNA fragment described by Kastner et al (The EMBO Journal, (1990), Vol. 9 No. 5, p. 1603-1614), containing the region coding for the human progestogen receptor and to prepare the corresponding recombinant virus. The recombinant virus obtained in this way was used to express the progestogen receptor in SF9 insect cells (ATCC CRL1711), according to the known methodology cited previously.
2×10^7 to 2.5×10^7 SF9 cells were cultured in a 175 ml "Falcon" flask in the TNM-FH medium supplemented with 10% fetal calf serum (FCS) and with 50 micrograms/ml of gentamycin. After infection, then incubation at 27° C. for 40 to 42 hours, the cells were taken up in 1 ml of lysis buffer (1), lysed by 2 cycles of freezing-thawing (-80° C./ 0° C.), then centrifuged at 4° C. for 30 minutes at 20,900 g. The supernatant, containing the recombinant human progestogen receptor, was stored in liquid nitrogen in quantities of 1 ml.
The supernatant was diluted at the time of use with 10 mM Tris buffer, 0.25M saccharose, HCl pH 7.4 containing 0.1% of gelatin and then incubated at 0° C. for 24 hours with a constant concentration (T) of tritiated 17α, 21-dimethyl-19-nor-Δ^4,9 pregnadiene-3,20-dione in the presence of increasing concentrations of either unlabelled progesterone (0-2500×10^-9 M), or the unlabelled product to be tested (1 to 25000×10^-9 M). The concentration of bound tritiated 17,21-dimethyl-19-nor-Δ^4,9 -pregnadiene-3,20-dione (B) was then measured in each incubate using the charcoal dextran adsorption technique.
Calculation of the relative bond affinity (RBA).
The following two curves were drawn: the percentage of bound tritiated hormone B/BO as a function of the logarithm of the concentration of unlabelled reference hormone or as a function of the logarithm of the concentration of unlabelled test product. The straight line of the following equation was determined: […]
The relative bond affinity (RBA) of the test product was determined by the equation: […]

`C[C@H](O)C(=O)[C@@]1(C)CC[C@H]2[C@@H]3C[C@@H](O)C4=CC(=O)CCC4=C3CC[C@@]21C` [Product B, [6β, 17β-(S)]-6-hydroxy-17-(2-hydroxy-1-oxopropyl)-17-methyl-Δ^4,9-estradiene-3-one]: the “Average uterine lace (McPhail Index)” value in test [1] (rabbit, 0,01 mg/kg) was 1,4; in test [1] (rabbit, 0,1 mg/kg) it was 2. Moreover, the “RBA, Human progestogen receptor” value is reported as 12 in test [2] and “moderate RBA” in test [2] (listed as product B).
As for `C[C@H](O)C(=O)[C@@]1(C)CC[C@H]2[C@@H]3CCC4=CC(=O)CCC4=C3CC[C@@]21C` [Trimegestone, [17β-(S)]-17-(2-hydroxy-1-oxopropyl)-17-methyl-Δ^4,9-estradiene-3-one, reference compound], in test [1] (Oryctolagus cuniculus, rabbit, note on this test, read-out: Dose from which progestomimetic activity starts), the minimal effective dose is 1 µg/kg. Further, in test [2], the “RBA, Human progestogen receptor” value is given as 588.
